Data reported in patent publication US10717733B2, “Haloallylamine indole and azaindole derivative inhibitors of lysyl oxidases and uses thereof” (PHARMAXIS LTD., priority 2016, dated 2020).
Where a name gives a salt, the structure may show the parent alone.

Legend:
[1] = tested on: Streptozotocin (STZ)-induced diabetic nephropathy; test: Streptozotocin induced diabetic nephropathy (kidney fibrosis) model; assay type: in vivo, mouse; conditions: diabetic eNOS knockout mice, 24 weeks, 0.1-100 mg/Kg
Experimental: Streptozotocin (STZ)-induced diabetic nephropathy is commonly used for creating rodent models of type 1 diabetes which develop renal injury, due to pancreatic cell damage with similarities to human diabetic nephropathy.
Diabetes is induced in eNOS knockout mice on C57BL/6 background by intraperitoneal STZ injection (55 mg/kg in 0.1 M citrate buffer) in mice of 6-9 weeks of age (see Huang C et al, Blockade of KCa3.1 ameliorates renal fibrosis through a TGF-bl/Smad pathway in diabetic mice. Diabetes, 2013 62(8):2923-2934).
Blood sugar level (BSL) is determined by tail vein blood. Mice with BSL>16 mmol/L two weeks post STZ injection are considered diabetic. Treatment with Compound 12 is carried out for 24 weeks from diagnosis of diabetes at a dose of 0.1-100 mg/Kg.

[2] = tested on: bleomycin induced lung fibrosis; test: Bleomycin induced lung fibrosis model; assay type: in vivo; conditions: mouse, intranasal bleomycin, 15 mg/kg
Experimental: Bleomycin induced lung fibrosis in rodents is a widely accepted experimental model to determine the anti-fibrotic activity of therapeutic agents.
Fibrosis is induced by intranasal administered of bleomycin sulphate at a dose of 0.05 U/mouse in a total volume of 50 uL PBS (see Corbel, M., et al Inhibition of bleomycin-induced pulmonary fibrosis in mice by the matrix metalloproteinase inhibitor batimastat J Pathol. 2001 April; 193(4):538-45.) Compound 12 is given 0.1-100 mg/Kg throughout the period of the experimental procedure or 7 days after bleomycin administration and then throughout the entire study.
Formalin fixed lungs sections stained with haematoxylin and eosin are assessed for fibrosis as per the scale outlined by Ashcroft et al (Simple method of estimating severity of pulmonary fibrosis on a numerical scale J Clin Pathol 1988; 41:467-470).

Bovine LOX = Bovine LOX (Bos taurus (Bovine), UniProt P33072); test: LOX inhibition, peroxidase-coupled Amplex Red amine oxidase assay; assay type: biochemical; conditions: 30 min preincubation at 37° C., putrescine substrate
Sequence of Bovine LOX (P33072 170-418): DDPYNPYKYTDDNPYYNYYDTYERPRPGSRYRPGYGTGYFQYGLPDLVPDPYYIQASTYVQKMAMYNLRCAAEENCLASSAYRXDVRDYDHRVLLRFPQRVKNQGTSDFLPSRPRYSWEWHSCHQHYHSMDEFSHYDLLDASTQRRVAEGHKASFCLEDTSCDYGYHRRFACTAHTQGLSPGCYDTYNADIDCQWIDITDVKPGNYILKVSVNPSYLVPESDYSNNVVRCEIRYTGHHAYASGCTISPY
Summary of the method: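 Bovine LOX in 1.2 M urea, 50 mM sodium borate pH 8.2 with 1 μM mofegiline and 0.5 mM pargyline; putrescine at twice KM (e.g. 20 mM for LOX) with Amplex Red/HRP. Fluorescence (ex 565/em 590 nm) read kinetically over 30 min at 37–45 °C; IC50 from slopes.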

[3] = tested on: primary fibroblasts from confirmed cases of IPF; test: Collagen cross-link formation in in vitro fibroblastic foci model of IPF; assay type: cell-based, human; conditions: TGF-β1 stimulated foci, six weeks culture, FIGS. 7a and 7b
Source text: The lung tissue of patients with idiopathic pulmonary fibrosis (IPF) is characterised by dense collections of myofibroblasts and extracellular matrix (ECM) termed ‘fibroblastic foci’. Using a novel in vitro model of fibroblastic foci (Jones et al., AJRCCM 191; 2015:A4912) the formation of lysyl oxidase (LOX) mediated collagen cross-links and the effects of the nonselective LOX inhibitor β-aminopropionitrile (BAPN) as well lysyl oxidase like-2 (LOXL2)-selective inhibitors were investigated.
Cultures of primary fibroblasts were grown out from clinical diagnostic biopsies of fibrotic lung and stored in liquid nitrogen. […]
To quantify collagen cross-links (Robins Biochem Soc Trans 2007; 35(5): 849-852; Saito et al Anal. Biochem. 1997; 253: 26-32; Sims, Avery & Bailey Methods in Molecular Biology 2000; vol 139: 11-26), cultures were treated with potassium borohydride to stabilise the reducible immature cross-links, and hydrolysed in 6N HCl at 100° C. for 16 hr. Total collagen content was assessed by hydroxyproline assay. Immature cross-links were assessed by LC/MS/MS and mature pyridinoline cross-links by ELISA. Cross-link data is expressed as moles of cross-link per mole collagen.

[4] = tested on: STAM mice, NASH liver fibrosis; test: Streptozotocin and high fat diet induced liver fibrosis (STAM model); assay type: in vivo, mouse; conditions: daily oral gavage 10-30 mg/kg, FIG. 6
Experimental: High fat/carbohydrate diet induced liver fibrosis is the most common reason for liver dysfunction and ultimately liver failure. NASH is induced in male mice by a single subcutaneous injection of 200 μg streptozotocin solution 2 days after birth and feeding with high fat diet after 4 weeks of age (STAM™ model).
LOXL2 inhibitor compound 112 was administered by daily oral gavage at doses between 10-30 mg/kg 8 weeks after streptozotocin application. Mice were sacrificed after NASH had been established and whole blood samples were taken via cardiac puncture. Liver samples were collected and washed with cold saline. Liver weight was measured. The left lateral, right and caudate lobes of livers were snap frozen in liquid nitrogen and stored at −80° C. For HE staining, sections were cut from paraffin blocks of liver tissue prefixed in Bouin's solution and stained with Lillie-Mayer's Hematoxylin and eosin solution. NAFLD Activity score (NAS) was calculated according to the criteria of Kleiner (Kleiner D E. et al., Design and validation of a histological scoring system for nonalcoholic fatty liver disease. Hepatology, 2005; 41:1313). To visualize collagen deposition, Bouin's fixed liver sections were stained using picro-Sirius red solution and the area of fibrosis was quantified (See FIG. 6).

SMILES	kidney function by albumin/creatinine ratio quantification [1]	reduction of fibrosis by Masson's Trichrome staining (collagen expression and glomerular damage) ([1]; vs vehicle-treated group)	Ashcroft score in the lungs [2]	IC50 (Bovine LOX) [nM]	collagen cross-link formation (immature and mature cross-links) [3]	liver fibrosis (picro-Sirius red area of fibrosis) [4]
CCOC(=O)c1ccc2c(c1)c(-c1cccc(S(=O)(=O)N(C)C)c1)c(C)n2C/C(F)=C/CN [Compound 12, (Z)-ethyl 1-(4-amino-2-fluorobut-2-en-1-yl)-3-(3-(N,N-dimethylsulfamoyl)phenyl)-2-methyl-1H-indole-5-carboxylate]	significant improvement	up to 50%	significantly reduced	> 300		
Cc1c(-c2cccc(S(=O)(=O)N(C)C)c2)c2ncccc2n1C/C(F)=C/CN [Compound 25, (Z)-3-(1-(4-amino-2-fluorobut-2-en-1-yl)-2-methyl-1H-pyrrolo[3,2-b]pyridin-3-yl)-N,N-dimethylbenzenesulfonamide Dihydrochloride]				> 300		
Cc1ccc2c(n1)c(-c1cccc(S(C)(=O)=O)c1)c(C)n2C/C(F)=C/CN [Compound 112, (Z)-4-(2,5-dimethyl-3-(3-(methylsulfonyl)phenyl)-1H-pyrrolo[3,2-b]pyridin-1-yl)-3-fluorobut-2-en-1-amine Dihydrochloride]				> 300	reduced cross-link formation in a concentration dependent manner	reduce lilver fibrosis
